Laboratory results taken from ChEMBL document CHEMBL4507291 (2021).

How the values were obtained:
[1] = biological target: Serine/threonine-protein kinase MAK (Homo sapiens) (UniProt P20794)
[2] = biological target: Mitogen-activated protein kinase 3 (Homo sapiens) (UniProt P27361); assay: Inhibition of Protein Serine/Threonine Kinase, MAPK3 (ERK1) at 10 µM in the Eurofins-Panlabs enzyme assay (Eurofins_assay_171000); conditions: Compound concentration 10.0 uM
[3] = biological target: Bone morphogenetic protein receptor type-1A (Homo sapiens) (UniProt P36894); assay: BMPR1A (ALK3) Kinase screen; conditions: Compound concentration 1.0 uM
[4] = biological target: T1, Cytoplasmic tyrosine-protein kinase BMX (Homo sapiens) (UniProt P51813); assay: BMX Kinase screen; conditions: Compound concentration 1.0 uM
T1 sequence (whole entry): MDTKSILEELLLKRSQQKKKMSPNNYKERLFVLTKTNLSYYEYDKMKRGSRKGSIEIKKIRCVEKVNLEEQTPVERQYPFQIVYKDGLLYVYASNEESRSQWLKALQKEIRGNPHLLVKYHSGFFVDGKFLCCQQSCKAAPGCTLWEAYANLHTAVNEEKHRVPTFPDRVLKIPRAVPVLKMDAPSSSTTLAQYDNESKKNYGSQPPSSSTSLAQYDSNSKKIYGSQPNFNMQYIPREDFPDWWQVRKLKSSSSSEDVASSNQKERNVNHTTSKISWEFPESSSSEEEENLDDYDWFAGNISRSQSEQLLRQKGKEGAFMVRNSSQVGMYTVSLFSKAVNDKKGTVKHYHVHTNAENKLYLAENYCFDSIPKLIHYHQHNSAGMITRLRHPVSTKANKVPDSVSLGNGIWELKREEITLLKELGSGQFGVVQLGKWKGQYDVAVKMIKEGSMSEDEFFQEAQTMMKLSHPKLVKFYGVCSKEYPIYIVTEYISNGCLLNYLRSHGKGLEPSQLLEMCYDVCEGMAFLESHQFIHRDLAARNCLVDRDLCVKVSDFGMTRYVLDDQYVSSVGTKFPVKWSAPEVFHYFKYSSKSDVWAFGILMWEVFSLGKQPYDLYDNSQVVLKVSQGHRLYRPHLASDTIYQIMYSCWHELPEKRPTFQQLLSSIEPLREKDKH

[5] = biological target: Calcium/calmodulin-dependent protein kinase type II subunit alpha (Homo sapiens) (UniProt Q9UQM7); assay: CAMK2A (CaMKII alpha) Kinase screen; conditions: Compound concentration 1.0 uM
[6] = biological target: Dual specificity protein kinase CLK1 (Homo sapiens) (UniProt P49759); assay: CLK1 Kinase screen; conditions: Compound concentration 1.0 uM
[7] = biological target: Tyrosine-protein kinase CSK (Homo sapiens) (UniProt P41240); assay: CSK Kinase screen; conditions: Compound concentration 1.0 uM
[8] = biological target: Casein kinase II subunit alpha (Homo sapiens) (UniProt P68400); assay: CSNK2A1 (CK2 alpha 1) Kinase screen; conditions: Compound concentration 1.0 uM
[9] = biological target: T2, Ephrin type-A receptor 8 (Homo sapiens) (UniProt P29322); assay: EPHA8 Kinase screen; conditions: Compound concentration 1.0 uM
T2 sequence (whole entry): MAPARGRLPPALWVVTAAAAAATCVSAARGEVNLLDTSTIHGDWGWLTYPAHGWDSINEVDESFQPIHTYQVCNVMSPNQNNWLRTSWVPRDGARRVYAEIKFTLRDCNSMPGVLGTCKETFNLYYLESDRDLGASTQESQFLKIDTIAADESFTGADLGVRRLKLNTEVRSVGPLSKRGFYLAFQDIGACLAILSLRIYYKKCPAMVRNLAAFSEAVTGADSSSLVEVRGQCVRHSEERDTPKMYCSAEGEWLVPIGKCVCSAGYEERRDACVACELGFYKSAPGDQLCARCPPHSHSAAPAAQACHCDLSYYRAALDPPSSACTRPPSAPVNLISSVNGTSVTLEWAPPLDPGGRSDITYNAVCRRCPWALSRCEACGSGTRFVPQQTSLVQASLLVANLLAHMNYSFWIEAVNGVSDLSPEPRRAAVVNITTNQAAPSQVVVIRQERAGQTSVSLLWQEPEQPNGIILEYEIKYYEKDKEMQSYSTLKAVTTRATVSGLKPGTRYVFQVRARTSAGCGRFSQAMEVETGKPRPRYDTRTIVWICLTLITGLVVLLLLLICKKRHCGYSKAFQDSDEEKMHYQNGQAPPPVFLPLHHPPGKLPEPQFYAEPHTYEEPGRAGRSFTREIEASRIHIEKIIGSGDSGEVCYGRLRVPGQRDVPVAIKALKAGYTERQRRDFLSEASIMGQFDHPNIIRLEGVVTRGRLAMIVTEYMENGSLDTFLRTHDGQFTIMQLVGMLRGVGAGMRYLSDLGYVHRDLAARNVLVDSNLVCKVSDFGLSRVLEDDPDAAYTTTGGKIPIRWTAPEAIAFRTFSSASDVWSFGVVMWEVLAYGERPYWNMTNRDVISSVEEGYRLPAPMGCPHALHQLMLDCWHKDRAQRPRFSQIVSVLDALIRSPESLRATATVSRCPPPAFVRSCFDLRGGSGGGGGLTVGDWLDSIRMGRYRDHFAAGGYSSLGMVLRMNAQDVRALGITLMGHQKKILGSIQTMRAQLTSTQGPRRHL

[10] = biological target: Vascular endothelial growth factor receptor 3 (Homo sapiens) (UniProt P35916); assay: FLT4 (VEGFR3) Kinase screen; conditions: Compound concentration 1.0 uM
[11] = biological target: Insulin receptor-related protein (Homo sapiens) (UniProt P14616); assay: INSRR (IRR) Kinase screen; conditions: Compound concentration 1.0 uM
Chain of Insulin receptor-related protein (Homo sapiens) (P14616 27-742 limits assumed): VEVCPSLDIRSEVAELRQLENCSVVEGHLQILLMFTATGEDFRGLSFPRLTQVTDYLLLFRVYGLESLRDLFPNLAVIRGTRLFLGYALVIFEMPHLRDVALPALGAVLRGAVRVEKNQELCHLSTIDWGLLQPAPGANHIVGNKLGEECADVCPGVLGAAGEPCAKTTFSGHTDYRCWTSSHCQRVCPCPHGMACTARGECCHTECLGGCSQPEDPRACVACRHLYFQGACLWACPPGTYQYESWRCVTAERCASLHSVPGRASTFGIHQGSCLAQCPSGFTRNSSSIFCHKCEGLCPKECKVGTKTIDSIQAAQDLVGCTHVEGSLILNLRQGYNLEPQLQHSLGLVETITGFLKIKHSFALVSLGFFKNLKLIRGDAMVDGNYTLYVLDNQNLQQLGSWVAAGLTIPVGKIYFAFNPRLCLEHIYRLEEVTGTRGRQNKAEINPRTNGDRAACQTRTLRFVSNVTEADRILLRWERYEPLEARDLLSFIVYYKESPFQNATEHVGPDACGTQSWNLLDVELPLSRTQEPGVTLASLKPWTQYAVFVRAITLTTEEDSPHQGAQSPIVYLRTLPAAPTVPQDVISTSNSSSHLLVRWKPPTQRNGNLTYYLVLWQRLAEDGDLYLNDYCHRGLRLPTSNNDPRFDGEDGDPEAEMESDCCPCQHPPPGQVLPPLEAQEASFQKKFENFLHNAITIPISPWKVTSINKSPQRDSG
Chain of Insulin receptor-related protein (Homo sapiens) (P14616 747-1297 limits assumed): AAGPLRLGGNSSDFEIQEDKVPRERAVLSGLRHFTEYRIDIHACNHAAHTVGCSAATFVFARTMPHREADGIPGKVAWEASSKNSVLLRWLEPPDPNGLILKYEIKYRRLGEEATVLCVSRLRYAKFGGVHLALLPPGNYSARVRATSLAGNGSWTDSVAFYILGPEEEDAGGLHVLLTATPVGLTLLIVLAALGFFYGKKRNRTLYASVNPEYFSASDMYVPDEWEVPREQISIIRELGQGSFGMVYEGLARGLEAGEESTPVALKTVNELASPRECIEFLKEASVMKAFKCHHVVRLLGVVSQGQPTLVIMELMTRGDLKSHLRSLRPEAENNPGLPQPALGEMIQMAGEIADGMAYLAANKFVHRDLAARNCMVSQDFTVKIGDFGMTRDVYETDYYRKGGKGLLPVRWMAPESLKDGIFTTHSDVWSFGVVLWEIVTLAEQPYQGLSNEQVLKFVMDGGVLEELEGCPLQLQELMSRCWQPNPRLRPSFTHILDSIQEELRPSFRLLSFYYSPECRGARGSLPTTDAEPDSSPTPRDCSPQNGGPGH

[12] = biological target: Mitogen-activated protein kinase 9 (Homo sapiens) (UniProt P45984); assay: MAPK9 (JNK2) Kinase screen; conditions: Compound concentration 1.0 uM
Chain of Mitogen-activated protein kinase 9 (Homo sapiens) (P45984 whole entry, looked up): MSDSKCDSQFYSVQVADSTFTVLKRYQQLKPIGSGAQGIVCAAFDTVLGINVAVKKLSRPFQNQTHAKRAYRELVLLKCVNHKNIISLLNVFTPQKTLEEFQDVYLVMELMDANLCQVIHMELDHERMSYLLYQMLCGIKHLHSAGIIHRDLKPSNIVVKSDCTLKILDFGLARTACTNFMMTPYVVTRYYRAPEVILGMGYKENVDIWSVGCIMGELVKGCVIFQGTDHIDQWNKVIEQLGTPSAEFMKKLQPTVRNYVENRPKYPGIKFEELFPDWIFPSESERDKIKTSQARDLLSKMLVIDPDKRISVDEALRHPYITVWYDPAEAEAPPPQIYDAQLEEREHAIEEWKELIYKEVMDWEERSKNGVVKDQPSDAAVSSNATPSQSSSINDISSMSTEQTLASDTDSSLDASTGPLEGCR

[13] = biological target: MAP kinase-interacting serine/threonine-protein kinase 1 (Homo sapiens) (UniProt Q9BUB5); assay: MKNK1 (MNK1) Kinase screen; conditions: Compound concentration 1.0 uM
[14] = biological target: Focal adhesion kinase 1 (Homo sapiens) (UniProt Q05397); assay: PTK2 (FAK) Kinase screen; conditions: Compound concentration 1.0 uM
Chain of Focal adhesion kinase 1 (Homo sapiens) (Q05397 2-1052 limits assumed): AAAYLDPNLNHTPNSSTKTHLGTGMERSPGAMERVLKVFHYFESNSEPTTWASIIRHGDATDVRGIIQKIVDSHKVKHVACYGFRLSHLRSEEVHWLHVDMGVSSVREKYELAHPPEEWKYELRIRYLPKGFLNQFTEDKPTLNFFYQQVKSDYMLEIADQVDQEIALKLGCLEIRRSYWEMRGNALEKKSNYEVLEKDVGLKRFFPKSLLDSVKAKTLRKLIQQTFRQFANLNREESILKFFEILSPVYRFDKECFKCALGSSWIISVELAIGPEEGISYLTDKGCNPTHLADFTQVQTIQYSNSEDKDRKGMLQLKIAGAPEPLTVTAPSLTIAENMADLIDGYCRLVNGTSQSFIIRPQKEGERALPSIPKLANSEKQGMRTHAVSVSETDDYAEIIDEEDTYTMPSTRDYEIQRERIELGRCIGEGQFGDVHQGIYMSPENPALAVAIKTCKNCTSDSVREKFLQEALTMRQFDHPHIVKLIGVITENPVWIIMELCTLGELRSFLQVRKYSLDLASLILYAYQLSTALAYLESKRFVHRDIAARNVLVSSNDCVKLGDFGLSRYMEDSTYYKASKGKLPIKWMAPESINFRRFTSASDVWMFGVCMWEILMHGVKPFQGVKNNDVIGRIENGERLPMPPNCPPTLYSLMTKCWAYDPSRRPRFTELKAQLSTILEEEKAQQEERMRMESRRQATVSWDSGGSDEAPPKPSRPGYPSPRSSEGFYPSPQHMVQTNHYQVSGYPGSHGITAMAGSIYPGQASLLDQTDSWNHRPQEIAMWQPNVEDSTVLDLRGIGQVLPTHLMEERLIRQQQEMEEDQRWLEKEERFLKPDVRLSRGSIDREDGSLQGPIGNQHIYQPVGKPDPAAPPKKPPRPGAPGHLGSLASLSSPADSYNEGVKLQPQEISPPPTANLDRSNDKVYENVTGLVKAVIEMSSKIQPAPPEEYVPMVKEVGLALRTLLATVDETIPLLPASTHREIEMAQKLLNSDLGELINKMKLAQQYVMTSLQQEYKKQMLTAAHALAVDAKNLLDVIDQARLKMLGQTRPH

[15] = test system: Proto-oncogene tyrosine-protein kinase receptor Ret (Homo sapiens), P07949 [V804L]; assay: RET V804L Kinase screen; conditions: Compound concentration 1.0 uM
[16] = biological target: Ribosomal protein S6 kinase alpha-3 (Homo sapiens) (UniProt P51812); assay: RPS6KA3 (RSK2) Kinase screen; conditions: Compound concentration 1.0 uM
[17] = biological target: Sphingosine kinase 2 (Homo sapiens) (UniProt Q9NRA0); assay: SPHK2 Kinase screen; conditions: Compound concentration 1.0 uM
Chain of Sphingosine kinase 2 (Homo sapiens) (Q9NRA0 whole entry): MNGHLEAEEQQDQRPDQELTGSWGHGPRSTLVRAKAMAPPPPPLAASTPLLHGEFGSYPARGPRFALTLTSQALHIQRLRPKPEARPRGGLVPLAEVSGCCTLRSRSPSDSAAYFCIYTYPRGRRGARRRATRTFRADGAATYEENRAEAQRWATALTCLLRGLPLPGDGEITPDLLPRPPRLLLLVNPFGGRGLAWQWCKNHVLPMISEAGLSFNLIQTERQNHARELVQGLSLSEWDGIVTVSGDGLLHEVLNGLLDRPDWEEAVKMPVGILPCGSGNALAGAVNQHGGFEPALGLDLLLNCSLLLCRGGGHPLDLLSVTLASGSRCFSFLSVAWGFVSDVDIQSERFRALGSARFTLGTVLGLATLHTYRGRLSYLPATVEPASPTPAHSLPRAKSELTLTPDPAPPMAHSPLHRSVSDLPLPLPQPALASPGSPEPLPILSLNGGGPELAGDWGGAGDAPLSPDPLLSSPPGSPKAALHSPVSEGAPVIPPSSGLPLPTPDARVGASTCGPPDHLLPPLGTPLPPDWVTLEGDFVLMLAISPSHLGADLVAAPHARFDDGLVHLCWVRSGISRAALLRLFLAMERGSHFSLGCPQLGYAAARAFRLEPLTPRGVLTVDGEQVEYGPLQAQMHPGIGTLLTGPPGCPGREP

[18] = biological target: Proto-oncogene tyrosine-protein kinase Src (Homo sapiens) (UniProt P12931); assay: SRC N1 Kinase screen; conditions: Compound concentration 1.0 uM
[19] = biological target: Serine/threonine-protein kinase 25 (Homo sapiens) (UniProt O00506); assay: STK25 (YSK1) Kinase screen; conditions: Compound concentration 1.0 uM
[20] = biological target: Activated CDC42 kinase 1 (Homo sapiens) (UniProt Q07912); assay: TNK2 (ACK) Kinase screen; conditions: Compound concentration 1.0 uM
Chain of Activated CDC42 kinase 1 (Homo sapiens) (Q07912 whole entry, looked up): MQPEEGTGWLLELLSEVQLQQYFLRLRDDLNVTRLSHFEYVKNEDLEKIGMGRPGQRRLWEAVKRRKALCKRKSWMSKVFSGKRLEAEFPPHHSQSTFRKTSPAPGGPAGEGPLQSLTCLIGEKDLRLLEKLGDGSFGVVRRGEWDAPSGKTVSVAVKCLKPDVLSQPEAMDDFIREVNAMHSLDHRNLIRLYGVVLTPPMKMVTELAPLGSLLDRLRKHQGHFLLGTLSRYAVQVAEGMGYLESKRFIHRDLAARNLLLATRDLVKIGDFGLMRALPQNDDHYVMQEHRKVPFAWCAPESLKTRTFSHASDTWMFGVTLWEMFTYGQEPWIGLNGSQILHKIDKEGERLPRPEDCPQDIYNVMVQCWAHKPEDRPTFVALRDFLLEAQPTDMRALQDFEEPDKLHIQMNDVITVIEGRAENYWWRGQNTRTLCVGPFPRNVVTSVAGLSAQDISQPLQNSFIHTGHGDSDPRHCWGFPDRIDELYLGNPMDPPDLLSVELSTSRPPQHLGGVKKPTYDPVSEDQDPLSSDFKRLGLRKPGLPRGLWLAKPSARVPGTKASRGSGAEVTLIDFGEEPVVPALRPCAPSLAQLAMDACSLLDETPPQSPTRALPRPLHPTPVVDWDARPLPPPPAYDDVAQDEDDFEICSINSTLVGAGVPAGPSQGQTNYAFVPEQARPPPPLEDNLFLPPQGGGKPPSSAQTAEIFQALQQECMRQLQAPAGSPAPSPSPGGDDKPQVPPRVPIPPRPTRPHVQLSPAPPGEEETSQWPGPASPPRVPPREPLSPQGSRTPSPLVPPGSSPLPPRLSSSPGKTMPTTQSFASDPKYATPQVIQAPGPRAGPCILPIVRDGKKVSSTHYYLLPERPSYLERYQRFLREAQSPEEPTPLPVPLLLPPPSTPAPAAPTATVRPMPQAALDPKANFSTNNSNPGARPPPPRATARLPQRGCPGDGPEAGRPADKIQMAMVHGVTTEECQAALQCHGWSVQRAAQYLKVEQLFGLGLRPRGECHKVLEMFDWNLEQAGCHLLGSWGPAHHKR

[21] = biological target: GABA-A receptor; anion channel (Rattus norvegicus) (UniProt O09028+P15431+P18506+P18508+P19969+P20236+P23574+P23576+P28471+P28473+P30191+P62813+P63079+P63138+Q91ZM7+Q9ES14); conditions: Compound concentration 10.0 uM

Chain of Serine/threonine-protein kinase MAK (Homo sapiens) (P20794 whole entry): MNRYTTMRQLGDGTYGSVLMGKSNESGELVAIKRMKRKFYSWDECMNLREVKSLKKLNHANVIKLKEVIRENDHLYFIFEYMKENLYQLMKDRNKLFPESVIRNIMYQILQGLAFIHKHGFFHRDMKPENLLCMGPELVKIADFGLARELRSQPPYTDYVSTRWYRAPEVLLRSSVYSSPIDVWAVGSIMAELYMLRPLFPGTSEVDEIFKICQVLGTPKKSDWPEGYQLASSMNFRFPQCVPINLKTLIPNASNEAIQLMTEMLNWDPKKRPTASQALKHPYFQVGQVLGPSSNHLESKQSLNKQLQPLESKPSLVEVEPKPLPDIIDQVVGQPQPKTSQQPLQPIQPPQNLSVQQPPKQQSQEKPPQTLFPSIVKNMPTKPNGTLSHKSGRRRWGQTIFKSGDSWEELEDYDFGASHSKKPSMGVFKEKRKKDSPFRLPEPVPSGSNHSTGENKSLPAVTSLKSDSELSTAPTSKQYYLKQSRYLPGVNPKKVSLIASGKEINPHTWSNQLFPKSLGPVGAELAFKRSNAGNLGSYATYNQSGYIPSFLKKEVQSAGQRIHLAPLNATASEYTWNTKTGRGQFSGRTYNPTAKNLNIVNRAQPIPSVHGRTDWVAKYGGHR

C[C@@H]1CN(c2cc(-c3nn(C)c4ccc(OC5(C)CC5)cc34)ncn2)C[C@H](C)O1 [MLi-2-NC]
inactive: residual activity ([1]; Compound concentration 1000.0 nM) 100%

C[C@@H]1CN(c2cc(-c3n[nH]c4ccc(OC5(C)CC5)cc34)ncn2)C[C@H](C)O1 [MLi-2]
inactive: inhibition [2] 33% | inhibition [3] 0.759% | inhibition [4] 14% | inhibition [5] 7.96% | inhibition [6] 15.7% | inhibition [7] 5.55% | inhibition [8] 3.5% | inhibition [9] 7.44% | inhibition [10] 8.71% | inhibition [11] 21.1% | inhibition [12] 19.7% | inhibition [13] -3.19% | inhibition [14] 14.2% | inhibition [15] 5.69% | inhibition [16] 3.91% | inhibition [17] -0.739% | inhibition [18] 5.78% | inhibition [19] 2.24% | inhibition [20] 22.9% | residual activity ([1]; Compound concentration 100.0 nM) 95% | inhibition [21] 35%
